The source made the active and inactive calls. Cut-off read from the data, not from the text of the source, for most assays here: actives have a measured Kd and inactives only a lower limit.
Assays:
[1] = molecular target: T1, Delta(24)-sterol reductase (Homo sapiens, UniProt Q15392)
T1 sequence (Q15392 whole entry): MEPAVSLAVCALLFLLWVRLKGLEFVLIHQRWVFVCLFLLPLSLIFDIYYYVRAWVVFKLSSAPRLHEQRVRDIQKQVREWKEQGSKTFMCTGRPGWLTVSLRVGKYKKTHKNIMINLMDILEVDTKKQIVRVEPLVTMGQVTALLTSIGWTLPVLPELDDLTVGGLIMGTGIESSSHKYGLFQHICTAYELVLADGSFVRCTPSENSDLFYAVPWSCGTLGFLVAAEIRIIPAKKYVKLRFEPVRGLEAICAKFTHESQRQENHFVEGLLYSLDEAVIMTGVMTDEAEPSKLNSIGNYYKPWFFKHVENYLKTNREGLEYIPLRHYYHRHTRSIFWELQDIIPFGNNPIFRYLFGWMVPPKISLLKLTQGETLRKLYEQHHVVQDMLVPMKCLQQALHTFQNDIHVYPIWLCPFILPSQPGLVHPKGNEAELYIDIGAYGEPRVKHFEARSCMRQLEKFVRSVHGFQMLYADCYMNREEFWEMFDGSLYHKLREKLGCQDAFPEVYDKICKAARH

[2] = molecular target: Ribosomal protein S6 kinase alpha-3 (Homo sapiens, UniProt P51812)
[3] = molecular target: Non-receptor tyrosine-protein kinase TYK2 (Homo sapiens, UniProt P29597)
[4] = molecular target: Serine/threonine-protein kinase SIK2 (Homo sapiens, UniProt Q9H0K1)
Ephrin type-B receptor 6 = molecular target: T2, Ephrin type-B receptor 6 (Homo sapiens, UniProt O15197)
T2 sequence (O15197 whole entry): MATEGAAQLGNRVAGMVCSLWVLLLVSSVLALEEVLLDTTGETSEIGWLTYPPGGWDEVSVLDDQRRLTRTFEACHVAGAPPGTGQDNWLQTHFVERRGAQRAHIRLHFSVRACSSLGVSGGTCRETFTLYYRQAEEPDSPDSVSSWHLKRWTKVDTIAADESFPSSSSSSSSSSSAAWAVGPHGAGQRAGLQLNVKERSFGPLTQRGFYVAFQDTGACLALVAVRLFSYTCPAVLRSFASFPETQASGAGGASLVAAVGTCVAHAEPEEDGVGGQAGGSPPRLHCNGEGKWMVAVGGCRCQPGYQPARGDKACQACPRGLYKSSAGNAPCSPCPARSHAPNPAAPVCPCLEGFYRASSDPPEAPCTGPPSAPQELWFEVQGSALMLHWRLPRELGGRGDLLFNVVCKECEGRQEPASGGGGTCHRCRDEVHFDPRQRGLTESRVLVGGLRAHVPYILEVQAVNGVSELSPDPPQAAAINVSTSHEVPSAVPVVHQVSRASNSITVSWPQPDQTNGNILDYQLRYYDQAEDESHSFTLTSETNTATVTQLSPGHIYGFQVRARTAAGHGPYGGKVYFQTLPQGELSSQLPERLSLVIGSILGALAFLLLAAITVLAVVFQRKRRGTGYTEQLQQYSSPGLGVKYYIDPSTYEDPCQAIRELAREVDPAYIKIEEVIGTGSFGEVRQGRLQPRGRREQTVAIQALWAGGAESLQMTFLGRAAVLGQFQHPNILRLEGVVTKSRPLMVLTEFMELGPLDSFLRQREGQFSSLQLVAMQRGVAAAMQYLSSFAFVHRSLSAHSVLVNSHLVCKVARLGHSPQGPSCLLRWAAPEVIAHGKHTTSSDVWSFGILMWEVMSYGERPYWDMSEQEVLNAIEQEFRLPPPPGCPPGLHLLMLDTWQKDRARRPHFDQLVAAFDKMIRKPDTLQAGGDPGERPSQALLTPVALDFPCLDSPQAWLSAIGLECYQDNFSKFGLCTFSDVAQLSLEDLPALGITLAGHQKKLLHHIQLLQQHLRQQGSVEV

[5] = molecular target: T3, Electron transfer flavoprotein subunit beta (Homo sapiens, UniProt P38117)
T3 sequence (P38117 whole entry): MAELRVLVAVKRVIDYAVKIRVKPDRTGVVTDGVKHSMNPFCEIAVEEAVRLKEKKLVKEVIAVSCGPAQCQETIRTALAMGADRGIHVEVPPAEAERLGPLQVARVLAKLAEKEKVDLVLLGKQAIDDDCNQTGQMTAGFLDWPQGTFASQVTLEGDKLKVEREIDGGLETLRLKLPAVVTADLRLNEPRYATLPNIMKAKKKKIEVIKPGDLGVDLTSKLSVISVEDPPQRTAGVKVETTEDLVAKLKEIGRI

[6] = molecular target: Tyrosine-protein kinase HCK (Homo sapiens, UniProt P08631)
[7] = molecular target: Ribosomal protein S6 kinase alpha-6 (Homo sapiens, UniProt Q9UK32)
Note: in the data inactive means no Kd found up to 30 µM.

Sequence of Tyrosine-protein kinase HCK (P08631 whole entry): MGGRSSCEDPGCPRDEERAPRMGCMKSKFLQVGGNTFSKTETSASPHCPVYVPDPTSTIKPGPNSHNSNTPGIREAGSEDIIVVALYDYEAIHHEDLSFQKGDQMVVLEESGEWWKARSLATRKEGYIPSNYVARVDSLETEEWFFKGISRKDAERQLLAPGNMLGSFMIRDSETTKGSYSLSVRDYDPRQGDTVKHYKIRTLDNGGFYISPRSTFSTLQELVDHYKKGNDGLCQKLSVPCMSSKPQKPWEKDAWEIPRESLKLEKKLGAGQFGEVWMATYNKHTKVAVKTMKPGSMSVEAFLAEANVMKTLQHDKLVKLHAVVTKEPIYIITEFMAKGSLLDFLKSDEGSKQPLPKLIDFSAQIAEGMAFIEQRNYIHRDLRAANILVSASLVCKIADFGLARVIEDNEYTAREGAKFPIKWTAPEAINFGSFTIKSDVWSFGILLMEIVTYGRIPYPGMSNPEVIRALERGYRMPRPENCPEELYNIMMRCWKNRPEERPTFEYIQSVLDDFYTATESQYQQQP
Sequence of Serine/threonine-protein kinase SIK2 (Q9H0K1 whole entry): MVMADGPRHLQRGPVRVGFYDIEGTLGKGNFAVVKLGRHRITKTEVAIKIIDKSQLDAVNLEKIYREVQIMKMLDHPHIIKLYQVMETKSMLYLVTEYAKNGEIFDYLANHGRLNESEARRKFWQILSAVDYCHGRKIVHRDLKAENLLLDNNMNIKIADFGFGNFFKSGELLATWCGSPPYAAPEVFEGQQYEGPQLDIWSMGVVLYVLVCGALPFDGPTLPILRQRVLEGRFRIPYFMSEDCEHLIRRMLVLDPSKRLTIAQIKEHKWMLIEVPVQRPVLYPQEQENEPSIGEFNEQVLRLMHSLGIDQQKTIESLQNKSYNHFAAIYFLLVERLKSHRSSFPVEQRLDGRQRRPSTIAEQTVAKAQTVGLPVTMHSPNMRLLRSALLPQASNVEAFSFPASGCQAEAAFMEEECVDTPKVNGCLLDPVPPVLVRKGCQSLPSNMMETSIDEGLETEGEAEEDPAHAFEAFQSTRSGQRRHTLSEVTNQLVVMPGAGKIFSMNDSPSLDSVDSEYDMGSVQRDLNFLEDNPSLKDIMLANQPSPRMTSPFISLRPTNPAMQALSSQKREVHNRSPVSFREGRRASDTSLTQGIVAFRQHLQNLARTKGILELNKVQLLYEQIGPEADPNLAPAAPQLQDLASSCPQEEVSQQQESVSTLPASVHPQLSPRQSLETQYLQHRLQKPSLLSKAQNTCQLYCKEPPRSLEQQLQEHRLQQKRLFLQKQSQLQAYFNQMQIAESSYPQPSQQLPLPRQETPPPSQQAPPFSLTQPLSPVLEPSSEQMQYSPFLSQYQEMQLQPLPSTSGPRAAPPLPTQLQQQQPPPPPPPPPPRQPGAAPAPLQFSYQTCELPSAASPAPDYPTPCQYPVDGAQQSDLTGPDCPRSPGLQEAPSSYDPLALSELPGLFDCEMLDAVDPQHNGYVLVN
Sequence of Non-receptor tyrosine-protein kinase TYK2 (P29597 whole entry): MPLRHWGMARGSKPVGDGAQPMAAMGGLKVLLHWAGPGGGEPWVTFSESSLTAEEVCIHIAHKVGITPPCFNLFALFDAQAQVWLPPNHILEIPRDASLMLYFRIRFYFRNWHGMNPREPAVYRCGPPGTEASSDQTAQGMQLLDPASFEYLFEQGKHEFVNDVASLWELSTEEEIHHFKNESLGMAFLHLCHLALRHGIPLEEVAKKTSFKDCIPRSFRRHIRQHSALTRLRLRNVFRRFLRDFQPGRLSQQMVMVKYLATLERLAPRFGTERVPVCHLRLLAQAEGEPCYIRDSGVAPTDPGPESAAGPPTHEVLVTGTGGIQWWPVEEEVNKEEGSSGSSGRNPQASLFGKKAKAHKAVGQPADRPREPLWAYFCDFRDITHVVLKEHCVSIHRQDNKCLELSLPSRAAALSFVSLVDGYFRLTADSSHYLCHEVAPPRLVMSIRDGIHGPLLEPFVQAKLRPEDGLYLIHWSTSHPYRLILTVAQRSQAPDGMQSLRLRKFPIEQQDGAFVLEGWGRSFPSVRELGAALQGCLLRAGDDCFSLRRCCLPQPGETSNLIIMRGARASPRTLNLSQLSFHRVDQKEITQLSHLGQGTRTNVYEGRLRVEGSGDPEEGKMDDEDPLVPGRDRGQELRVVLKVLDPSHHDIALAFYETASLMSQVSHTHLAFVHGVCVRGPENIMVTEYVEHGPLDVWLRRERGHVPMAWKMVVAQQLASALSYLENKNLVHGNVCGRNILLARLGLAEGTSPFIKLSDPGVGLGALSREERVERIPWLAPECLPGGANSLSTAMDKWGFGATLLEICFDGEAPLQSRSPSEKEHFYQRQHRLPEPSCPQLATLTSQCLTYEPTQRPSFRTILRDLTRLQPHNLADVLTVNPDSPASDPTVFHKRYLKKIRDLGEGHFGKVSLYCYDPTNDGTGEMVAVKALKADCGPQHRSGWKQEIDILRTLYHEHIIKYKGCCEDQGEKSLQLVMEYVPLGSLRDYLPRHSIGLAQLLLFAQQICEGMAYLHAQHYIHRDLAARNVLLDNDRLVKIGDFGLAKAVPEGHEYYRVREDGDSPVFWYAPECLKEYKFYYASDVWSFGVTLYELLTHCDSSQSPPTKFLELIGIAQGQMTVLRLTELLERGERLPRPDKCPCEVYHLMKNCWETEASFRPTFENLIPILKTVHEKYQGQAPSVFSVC
Sequence of Ribosomal protein S6 kinase alpha-3 (P51812 whole entry): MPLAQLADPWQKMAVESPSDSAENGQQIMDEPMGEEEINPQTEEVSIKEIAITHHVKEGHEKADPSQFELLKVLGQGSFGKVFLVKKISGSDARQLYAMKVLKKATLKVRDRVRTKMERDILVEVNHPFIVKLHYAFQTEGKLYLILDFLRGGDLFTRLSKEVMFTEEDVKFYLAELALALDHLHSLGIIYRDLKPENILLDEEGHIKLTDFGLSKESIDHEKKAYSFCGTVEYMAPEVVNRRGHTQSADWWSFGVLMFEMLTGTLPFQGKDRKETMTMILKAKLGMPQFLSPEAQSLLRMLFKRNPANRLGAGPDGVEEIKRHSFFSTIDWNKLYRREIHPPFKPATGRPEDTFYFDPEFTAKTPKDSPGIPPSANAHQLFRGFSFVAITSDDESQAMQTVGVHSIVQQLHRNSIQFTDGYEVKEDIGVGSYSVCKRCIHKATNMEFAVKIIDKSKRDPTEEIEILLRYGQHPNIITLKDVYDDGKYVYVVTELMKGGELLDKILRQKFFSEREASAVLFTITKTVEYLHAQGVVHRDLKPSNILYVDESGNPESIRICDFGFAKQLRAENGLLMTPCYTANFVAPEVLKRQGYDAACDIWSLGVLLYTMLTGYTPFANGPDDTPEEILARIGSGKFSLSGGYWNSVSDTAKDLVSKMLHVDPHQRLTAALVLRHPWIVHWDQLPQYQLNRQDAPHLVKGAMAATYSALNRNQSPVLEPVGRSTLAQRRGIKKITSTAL
Sequence of Ribosomal protein S6 kinase alpha-6 (Q9UK32 whole entry): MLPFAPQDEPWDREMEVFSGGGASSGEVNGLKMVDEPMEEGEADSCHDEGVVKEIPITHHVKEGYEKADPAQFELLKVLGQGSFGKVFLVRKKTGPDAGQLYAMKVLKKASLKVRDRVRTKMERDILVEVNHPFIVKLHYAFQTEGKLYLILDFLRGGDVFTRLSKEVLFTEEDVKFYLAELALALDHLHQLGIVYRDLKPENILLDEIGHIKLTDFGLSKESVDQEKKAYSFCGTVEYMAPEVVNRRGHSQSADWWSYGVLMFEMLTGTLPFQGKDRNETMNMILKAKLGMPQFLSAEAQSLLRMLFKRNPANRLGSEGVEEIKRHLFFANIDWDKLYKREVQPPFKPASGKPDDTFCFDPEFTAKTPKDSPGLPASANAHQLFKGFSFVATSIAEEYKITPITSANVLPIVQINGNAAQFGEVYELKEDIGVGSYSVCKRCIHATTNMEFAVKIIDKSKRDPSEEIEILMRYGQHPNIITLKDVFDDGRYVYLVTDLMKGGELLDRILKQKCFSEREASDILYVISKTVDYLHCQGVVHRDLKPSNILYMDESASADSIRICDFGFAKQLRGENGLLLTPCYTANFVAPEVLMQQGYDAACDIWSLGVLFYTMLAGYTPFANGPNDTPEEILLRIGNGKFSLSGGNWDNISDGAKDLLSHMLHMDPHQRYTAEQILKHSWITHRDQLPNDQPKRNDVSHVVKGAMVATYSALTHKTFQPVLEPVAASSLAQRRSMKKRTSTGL

Kd [1] | Kd [2] | Kd [3] | Kd [4] | Kd (Ephrin type-B receptor 6) | Kd [5] | Kd [6] | Kd [7] | SMILES
> 30 µM (inactive) | > 30 µM (inactive) | > 30 µM (inactive) | > 30 µM (inactive) | > 30 µM (inactive) | > 30 µM (inactive) | > 30 µM (inactive) | > 30 µM (inactive) | COc1ccc2c(OCc3nnc4ccc(-c5ccccc5)nn34)ccnc2c1 [AMG-208]
> 30 µM (inactive) | > 30 µM (inactive) | > 30 µM (inactive) | > 30 µM (inactive) | > 30 µM (inactive) | > 30 µM (inactive) | > 30 µM (inactive) | > 30 µM (inactive) | COc1cccc2cc(-c3nc([C@H]4CC[C@H](C(=O)O)CC4)n4ncnc(N)c34)[nH]c12 [OSI-027]
> 30 µM (inactive) | > 30 µM (inactive) | > 30 µM (inactive) | > 30 µM (inactive) | > 30 µM (inactive) | > 30 µM (inactive) | > 30 µM (inactive) | > 30 µM (inactive) | NC(=O)c1ccc(N(C(N)=O)c2c(F)cccc2F)nc1-c1ccc(F)cc1F [VX-702]
> 30 µM (inactive) | > 30 µM (inactive) | > 30 µM (inactive) | > 30 µM (inactive) | > 30 µM (inactive) | > 30 µM (inactive) | > 30 µM (inactive) | > 30 µM (inactive) | c1cc(OCCN2CCCCC2)cc(-c2n[nH]c3ccc(-c4nc[nH]n4)cc23)c1 [CC-401]

Second part, the molecule before the results:

SMILES | Kd [1] | Kd [2] | Kd [3] | Kd [4] | Kd (Ephrin type-B receptor 6) | Kd [5] | Kd [6] | Kd [7]
COc1cc2ncnc(Nc3ccc(F)c(Cl)c3)c2cc1NC(=O)/C=C/CN1CCCCC1 [DACOMITINIB ANHYDROUS] | > 30 µM (inactive) | > 30 µM (inactive) | > 30 µM (inactive) | > 30 µM (inactive) | > 30 µM (inactive) | > 30 µM (inactive) | > 30 µM (inactive) | > 30 µM (inactive)
C#Cc1cccc(Nc2ncnc3cc4c(cc23)OCCOCCOCCO4)c1 [ICOTINIB] | > 30 µM (inactive) | > 30 µM (inactive) | > 30 µM (inactive) | > 30 µM (inactive) | > 30 µM (inactive) | > 30 µM (inactive) | > 30 µM (inactive) | > 30 µM (inactive)
Cc1c(Cn2c(C)nc3c(C(=O)O)cc(N4CCOCC4)cc32)cccc1C(F)(F)F [GSK-2636771] | > 30 µM (inactive) | > 30 µM (inactive) | > 30 µM (inactive) | > 30 µM (inactive) | > 30 µM (inactive) | > 30 µM (inactive) | > 30 µM (inactive) | > 30 µM (inactive)
CNC(=O)c1cccc(-c2ccc3c(N4CCOC[C@@H]4C)nc(N4CCOC[C@@H]4C)nc3n2)c1 [VISTUSERTIB] | > 30 µM (inactive) | > 30 µM (inactive) | > 30 µM (inactive) | > 30 µM (inactive) | > 30 µM (inactive) | > 30 µM (inactive) | > 30 µM (inactive) | > 30 µM (inactive)
NC[C@@](O)(c1ccc(Cl)cc1)c1ccc(-c2cn[nH]c2)cc1 [AT-13148] | > 30 µM (inactive) | > 30 µM (inactive) | > 30 µM (inactive) | > 30 µM (inactive) | > 30 µM (inactive) | > 30 µM (inactive) | > 30 µM (inactive) | > 30 µM (inactive)
COc1cc2nccc(Oc3ccc(NC(=O)C4(C(=O)Nc5ccc(F)cc5)CC4)cc3)c2cc1OC [CABOZANTINIB] | > 30 µM (inactive) | > 30 µM (inactive) | > 30 µM (inactive) | > 30 µM (inactive) | > 30 µM (inactive) | > 30 µM (inactive) | 1.1 µM (active) | > 30 µM (inactive)
CCc1nc(C(N)=O)c(Nc2ccc(N3CCC(N4CCN(C)CC4)CC3)c(OC)c2)nc1NC1CCOCC1 [GILTERITINIB] | 0.432 µM (active) | 2.66 µM (active) | > 30 µM (inactive) | > 30 µM (inactive) | 0.241 µM | > 30 µM (inactive) | 1.59 µM (active) | > 30 µM (inactive)
COc1cc2ncnc(Nc3ccc(O)cc3)c2cc1OC [WHI-P131] | > 30 µM (inactive) | > 30 µM (inactive) | > 30 µM (inactive) | > 30 µM (inactive) | > 30 µM (inactive) | > 30 µM (inactive) | > 30 µM (inactive) | 5.9 µM (active)
Cc1ccc(C(=O)Nc2ccc(Oc3cc4cnn(C)c4cc3-c3cn[nH]c3)c(F)c2)c(=O)n1-c1ccc(F)cc1 [MERESTINIB] | > 30 µM (inactive) | > 30 µM (inactive) | > 30 µM (inactive) | > 30 µM (inactive) | > 30 µM (inactive) | > 30 µM (inactive) | > 30 µM (inactive) | > 30 µM (inactive)
Cn1cc(-c2[nH]c3cc(NC(=O)[C@H](N)C4CCCCC4)cc4c3c2C=NNC4=O)cn1 | > 30 µM (inactive) | > 30 µM (inactive) | > 30 µM (inactive) | 0.047 µM (active) | 1.53 µM | > 30 µM (inactive) | 0.436 µM (active) | 2.38 µM (active)
C=CC(=O)Nc1cc(Nc2nccc(-c3cn(C)c4ccccc34)n2)c(OC)cc1N(C)CCN(C)C [OSIMERTINIB] | > 30 µM (inactive) | > 30 µM (inactive) | > 30 µM (inactive) | > 30 µM (inactive) | > 30 µM (inactive) | > 30 µM (inactive) | > 30 µM (inactive) | > 30 µM (inactive)
